What was measured:
Assay in all cases: relative viability (nuclei count vs DMSO), 5 days (fraction); higher = more cells survive
GSK-J4 + AZD7762 = compound: CCOC(=O)CCNc1cc(N2CCc3ccccc3CC2)nc(-c2ccccn2)n1 [GSK-J4] + NC(=O)Nc1cc(-c2cccc(F)c2)sc1C(=O)N[C@H]1CCCNC1 [AZD7762] (partner 0.2 µM)
Procedure, shortened: (§1)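 Lung cancer cell lines, seeded in 1536-well plates, were treated the following day by pin tool with a single drug or with five library-drug doses (not always all listed) in √10 steps on top of a fixed anchor-drug dose. Cells were fixed and nuclei stained in one step after 5 days, and nuclei were counted. Relative viability is the nuclei count for treated wells divided by that for vehicle wells, reported as medians of duplicate plates.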

GSK-J4 + OSI-027 = compound: CCOC(=O)CCNc1cc(N2CCc3ccccc3CC2)nc(-c2ccccn2)n1 [GSK-J4] + COc1cccc2cc(-c3nc([C@H]4CC[C@H](C(=O)O)CC4)n4ncnc(N)c34)[nH]c12 [OSI-027] (partner 0.5 µM)
Procedure, shortened: as §1

AZ3146 + Alpelisib = compound: CN1CCC(CC1)OC2=CC(=C(C=C2)NC3=NC=C4C(=N3)N(C(=O)N4C)C5CCCC5)OC [AZ3146] + Cc1nc(NC(=O)N2CCC[C@H]2C(N)=O)sc1-c1ccnc(C(C)(C)C(F)(F)F)c1 [Alpelisib] (partner 2 µM)
Procedure, shortened: as §1

GSK-J4 + Tozasertib = compound: CCOC(=O)CCNc1cc(N2CCc3ccccc3CC2)nc(-c2ccccn2)n1 [GSK-J4] + Cc1cc(Nc2cc(N3CCN(C)CC3)nc(Sc3ccc(NC(=O)C4CC4)cc3)n2)n[nH]1 [Tozasertib] (partner 0.1 µM)
Procedure, shortened: as §1

Row | Cell Line | relative viability (GSK-J4 + AZD7762; first compound 0.5 µM) | relative viability (GSK-J4 + AZD7762; first compound 1.581 µM) | relative viability (GSK-J4 + AZD7762; first compound 5 µM) | relative viability (GSK-J4 + AZD7762; first compound 15.81 µM) | relative viability (GSK-J4 + AZD7762; first compound 50 µM) | relative viability (GSK-J4 + OSI-027; first compound 0.5 µM) | relative viability (GSK-J4 + OSI-027; first compound 1.581 µM) | relative viability (GSK-J4 + OSI-027; first compound 5 µM) | relative viability (GSK-J4 + OSI-027; first compound 15.81 µM) | relative viability (GSK-J4 + OSI-027; first compound 50 µM) | relative viability (AZ3146 + Alpelisib; first compound 0.08 µM) | relative viability (AZ3146 + Alpelisib; first compound 0.253 µM) | relative viability (AZ3146 + Alpelisib; first compound 0.8 µM) | relative viability (AZ3146 + Alpelisib; first compound 2.53 µM) | relative viability (AZ3146 + Alpelisib; first compound 8 µM) | relative viability (GSK-J4 + Tozasertib; first compound 0.5 µM) | relative viability (GSK-J4 + Tozasertib; first compound 1.581 µM) | relative viability (GSK-J4 + Tozasertib; first compound 5 µM) | relative viability (GSK-J4 + Tozasertib; first compound 15.81 µM) | relative viability (GSK-J4 + Tozasertib; first compound 50 µM)
1 | NCI-H441 | 1.12 | 1 | 1.05 | 1.01 | 0.967 | 0.673 | 0.472 | 0.567 | 0.536 | 0.433 | 0.58 | 0.719 | 0.675 | 0.787 | 0.647 | 0.595 | 0.634 | 0.526 | 0.559 | 0.494
2 | NCI-H2009 |  |  |  |  |  | 0.573 | 0.491 | 0.601 | 0.527 | 0.283 | 1.1 | 1.17 | 1.19 | 1.24 | 1.05 | 0.69 | 0.663 | 0.681 | 0.717 | 0.306
3 | NCI-H2170 | 0.776 | 0.839 | 0.774 | 0.667 | 0.836 | 0.692 | 0.696 | 0.718 | 0.702 | 0.524 | 0.72 | 0.767 | 0.82 | 0.794 | 0.733 | 0.599 | 0.544 | 0.692 | 0.759 | 0.512
4 | NCI-H1299 |  |  |  |  |  |  |  |  |  |  | 1 | 1.01 | 1.02 | 1.07 | 1.08 |  |  |  |  | 
5 | HCC-78 | 0.686 | 0.702 | 0.874 | 0.485 | 0.583 | 0.351 | 0.355 | 0.727 | 0.368 | 0.409 |  | 0.268 | 0.224 | 0.367 | 0.321 | 0.426 | 0.401 | 0.494 | 0.379 | 0.348
6 | NCI-H3122 | 1.01 | 0.917 | 0.916 | 0.93 | 1 | 0.88 |  | 1.1 | 0.537 | 0.674 | 0.68 | 0.683 | 0.702 | 0.872 | 0.775 | 0.516 |  | 0.371 | 0.275 | 0.442
7 | NCI-H2085 | 0.926 | 0.896 | 0.888 | 0.792 | 0.936 | 0.796 | 0.66 | 0.569 | 0.459 | 0.515 | 0.993 | 0.947 | 0.94 | 0.99 | 0.808 | 0.765 | 0.733 | 0.756 | 0.806 | 0.652
8 | HCC-366 | 0.325 | 0.258 |  | 0.226 | 0.312 | 1.01 | 0.889 |  | 0.524 | 0.785 | 0.357 | 0.379 | 0.419 | 0.433 | 0.393 | 0.138 | 0.0869 |  | 0.083 | 0.0821
9 | Calu-6 |  |  |  |  |  |  |  |  |  |  | 1.01 | 1.01 | 1.04 | 1.03 | 0.787 |  |  |  |  | 
10 | NCI-H2228 |  |  |  |  |  | 0.593 | 0.544 | 0.616 | 0.415 | 0.459 | 0.694 | 0.812 | 0.679 | 0.705 | 0.603 | 0.221 | 0.237 | 0.246 | 0.247 | 0.212
11 | COR-L23 |  |  |  |  |  | 0.753 | 0.603 |  | 0.733 | 0.625 | 0.705 | 0.74 | 0.766 | 0.824 | 0.639 | 0.171 | 0.211 |  | 0.158 | 0.136
12 | NCI-H1563 |  |  |  |  |  | 0.796 | 0.766 | 0.659 | 0.659 | 0.748 | 0.924 | 0.87 | 1 | 0.927 | 0.882 |  |  |  |  | 
13 | NCI-H2023 |  |  |  |  |  | 0.409 |  | 0.403 | 0.321 | 0.194 | 0.593 | 0.499 | 0.642 | 0.608 | 0.463 | 0.384 |  | 0.335 | 0.371 | 0.222
14 | NCI-H1792 | 0.771 | 0.534 | 0.325 | 0.674 | 0.457 | 0.671 |  | 0.778 | 0.485 | 0.681 | 0.577 | 0.75 | 0.762 | 0.667 | 0.718 |  |  |  |  | 
15 | EBC-1 |  |  |  |  |  |  |  |  |  |  | 0.927 | 0.828 | 0.731 | 0.882 | 0.711 |  |  |  |  | 
16 | NCI-H1650 |  |  |  |  |  | 0.732 | 0.365 | 0.673 | 0.606 | 0.553 |  |  |  |  |  | 0.369 | 0.393 | 0.333 | 0.311 | 0.301
17 | NCI-H1648 | 0.676 |  | 0.925 |  | 0.843 | 0.239 |  | 0.308 | 0.262 | 0.23 |  |  |  |  |  | 0.44 |  | 0.978 | 0.324 | 0.307
18 | NCI-H1703 | 0.117 |  | 0.113 | 0.119 | 0.119 |  |  |  |  |  | 0.374 | 0.34 | 0.326 | 0.437 | 0.29 |  |  |  |  | 
19 | A549 |  |  |  |  |  |  |  |  |  |  | 0.716 | 0.794 | 0.718 | 0.732 | 0.308 |  |  |  |  | 
20 | NCI-H522 | 0.909 | 0.759 |  | 0.637 | 0.603 | 0.78 | 0.637 | 0.541 | 0.585 | 0.543 |  |  |  |  |  | 0.541 | 0.608 | 0.502 | 0.515 | 0.485
21 | NCI-H1623 |  |  |  |  |  | 0.438 | 0.456 | 0.48 | 0.406 | 0.435 |  |  |  |  |  | 0.437 | 0.467 | 0.455 | 0.435 | 0.451
22 | SW 900 | 0.68 | 0.676 | 0.597 | 0.57 | 0.55 | 0.543 | 0.602 | 0.504 | 0.52 | 0.331 |  |  |  |  |  | 0.478 | 0.463 | 0.696 | 0.408 | 0.333
23 | SK-MES-1 |  |  |  |  |  | 0.573 | 0.542 | 0.535 | 0.436 | 0.327 | 0.785 | 0.93 | 0.866 | 0.836 | 0.932 | 0.821 | 0.854 | 0.736 | 0.856 | 0.524
24 | COR-L 105 |  |  |  |  |  | 0.631 | 0.64 | 0.546 | 0.585 | 0.692 | 1.01 | 1.15 | 0.86 | 1.1 | 0.665 | 0.311 | 0.371 | 0.36 | 0.394 | 0.387
